# Laboratory results taken from ChEMBL document CHEMBL3885881, “DrugMatrix”.
# Species: Rattus norvegicus
# Assay: DrugMatrix - Regimen: Daily Repeat
# Format: toxicity, organism-based, Sprague-Dawley
# Design: regimen Daily Repeat, gender Male, age 6-8 weeks
# Details: in vivo, po, route oral GAVAGE, […]; for ABSOLUTE BASOPHIL / BASOPHIL / NUCLEATED RED BLOOD CELLS / ABSOLUTE EOSINOPHIL / EOSINOPHIL / HEMOGLOBIN / PLATELET COUNT / ABSOLUTE LYMPHOCYTE / ABSOLUTE MONOCYTE / ABSOLUTE SEGMENTED NEUTROPHIL / ERYTHROCYTE COUNT / HEMATOCRIT / LYMPHOCYTE / MEAN CORPUSCULAR HEMOGLOBIN CONCENTRATION / MEAN CORPUSCULAR VOLUME: tissue Blood; for ASPARTATE AMINOTRANSFERASE / ALANINE AMINOTRANSFERASE / ALBUMIN / ALKALINE PHOSPHATASE / BLOOD UREA NITROGEN / CARBON DIOXIDE / CREATINE PHOSPHOKINASE / CREATININE / LACTATE DEHYDROGENASE / TOTAL BILIRUBIN / TOTAL PROTEIN / URIC ACID: tissue Plasma
# [1] = 0 mg/kg, 72 h, dose level Control, time 3 day
# [2] = 0 mg/kg, 120 h, dose level Control, time 5 day
# [3] = 0 mg/kg, dose level Control, time 7 day
# [4] = 43 mg/kg, 72 h, dose level Low, time 3 day
# [5] = 43 mg/kg, 120 h, dose level Low, time 5 day
# [6] = 100 mg/kg, 72 h, dose level M1, time 3 day
# [7] = 100 mg/kg, dose level M1, time 7 day
# [8] = 215 mg/kg, 72 h, dose level M2, time 3 day
compound,measurement,setting,value
CC(C)OC(=O)C(C)(C)Oc1ccc(C(=O)c2ccc(Cl)cc2)cc1 [FENOFIBRATE],ABSOLUTE BASOPHIL,[1],0 CELLS/uL
same,BASOPHIL,[1],0%
same,NUCLEATED RED BLOOD CELLS,[1],0 /100WBC
same,ABSOLUTE BASOPHIL,[2],0 CELLS/uL
same,ABSOLUTE EOSINOPHIL,[2],0 CELLS/uL
same,BASOPHIL,[2],0%
same,EOSINOPHIL,[2],0%
same,HEMOGLOBIN,[2],13.5 G/DL
same,PLATELET COUNT,[2],807.17 x10E3/uL
same,ASPARTATE AMINOTRANSFERASE,[2],83 u/L
same,ABSOLUTE BASOPHIL,[3],0 CELLS/uL
same,ABSOLUTE EOSINOPHIL,[3],19 CELLS/uL
same,ABSOLUTE LYMPHOCYTE,[3],7803.5 CELLS/uL
same,ABSOLUTE MONOCYTE,[3],117.83 CELLS/uL
same,ABSOLUTE SEGMENTED NEUTROPHIL,[3],1093 CELLS/uL
same,BASOPHIL,[3],0%
same,EOSINOPHIL,[3],0.17%
same,ERYTHROCYTE COUNT,[3],5.84 x10E6/uL
same,HEMATOCRIT,[3],35.75%
same,HEMOGLOBIN,[3],13.87 G/DL
same,LYMPHOCYTE,[3],87.17%
same,MEAN CORPUSCULAR HEMOGLOBIN CONCENTRATION,[3],38.8 G/DL
same,MEAN CORPUSCULAR VOLUME,[3],61.25 fL
same,NUCLEATED RED BLOOD CELLS,[3],0 /100WBC
same,PLATELET COUNT,[3],1098.67 x10E3/uL
same,ALANINE AMINOTRANSFERASE,[3],66 u/L
same,ALBUMIN,[3],4.3 G/DL
same,ALKALINE PHOSPHATASE,[3],291.83 u/L
same,ASPARTATE AMINOTRANSFERASE,[3],80.5 u/L
same,BLOOD UREA NITROGEN,[3],15.67 mg/dL
same,CARBON DIOXIDE,[3],30 mmol/L
same,CREATINE PHOSPHOKINASE,[3],363.33 u/L
same,CREATININE,[3],0.25 mg/dL
same,LACTATE DEHYDROGENASE,[3],219.67 u/L
same,TOTAL BILIRUBIN,[3],0.12 mg/dL
same,TOTAL PROTEIN,[3],6.33 G/DL
same,URIC ACID,[3],0.75 mg/dL
same,ABSOLUTE BASOPHIL,[4],0 CELLS/uL
same,ABSOLUTE EOSINOPHIL,[4],76 CELLS/uL
same,ABSOLUTE LYMPHOCYTE,[4],10300 CELLS/uL
same,ABSOLUTE MONOCYTE,[4],0 CELLS/uL
same,ABSOLUTE SEGMENTED NEUTROPHIL,[4],324 CELLS/uL
same,BASOPHIL,[4],0%
same,EOSINOPHIL,[4],0.67%
same,ERYTHROCYTE COUNT,[4],5.15 x10E6/uL
same,HEMATOCRIT,[4],32.83%
same,HEMOGLOBIN,[4],12.83 G/DL
same,LYMPHOCYTE,[4],96.33%
same,MEAN CORPUSCULAR HEMOGLOBIN CONCENTRATION,[4],39.07 G/DL
same,MEAN CORPUSCULAR VOLUME,[4],63.77 fL
same,NUCLEATED RED BLOOD CELLS,[4],0.33 /100WBC
same,PLATELET COUNT,[4],922 x10E3/uL
same,ALANINE AMINOTRANSFERASE,[4],71 u/L
same,ALBUMIN,[4],3.7 G/DL
same,ALKALINE PHOSPHATASE,[4],389.33 u/L
same,ASPARTATE AMINOTRANSFERASE,[4],87.67 u/L
same,BLOOD UREA NITROGEN,[4],7 mg/dL
same,CARBON DIOXIDE,[4],22 mmol/L
same,CREATINE PHOSPHOKINASE,[4],129.33 u/L
same,CREATININE,[4],0.13 mg/dL
same,LACTATE DEHYDROGENASE,[4],74.33 u/L
same,TOTAL BILIRUBIN,[4],0.1 mg/dL
same,TOTAL PROTEIN,[4],4.67 G/DL
same,URIC ACID,[4],0.63 mg/dL
same,ABSOLUTE BASOPHIL,[5],0 CELLS/uL
same,ABSOLUTE EOSINOPHIL,[5],51.33 CELLS/uL
same,ABSOLUTE LYMPHOCYTE,[5],9774.33 CELLS/uL
same,ABSOLUTE MONOCYTE,[5],51.33 CELLS/uL
same,ABSOLUTE SEGMENTED NEUTROPHIL,[5],823 CELLS/uL
same,BASOPHIL,[5],0%
same,EOSINOPHIL,[5],0.67%
same,ERYTHROCYTE COUNT,[5],4.75 x10E6/uL
same,HEMATOCRIT,[5],30.63%
same,HEMOGLOBIN,[5],12.1 G/DL
same,LYMPHOCYTE,[5],91.33%
same,MEAN CORPUSCULAR HEMOGLOBIN CONCENTRATION,[5],39.5 G/DL
same,MEAN CORPUSCULAR VOLUME,[5],64.5 fL
same,NUCLEATED RED BLOOD CELLS,[5],0 /100WBC
same,PLATELET COUNT,[5],848.67 x10E3/uL
same,ALANINE AMINOTRANSFERASE,[5],54.67 u/L
same,ALBUMIN,[5],4.57 G/DL
same,ALKALINE PHOSPHATASE,[5],365.33 u/L
same,ASPARTATE AMINOTRANSFERASE,[5],98.33 u/L
same,BLOOD UREA NITROGEN,[5],12.33 mg/dL
same,CARBON DIOXIDE,[5],27 mmol/L
same,CREATINE PHOSPHOKINASE,[5],885.67 u/L
same,CREATININE,[5],0.27 mg/dL
same,LACTATE DEHYDROGENASE,[5],151.33 u/L
same,TOTAL BILIRUBIN,[5],0.13 mg/dL
same,TOTAL PROTEIN,[5],5.73 G/DL
same,URIC ACID,[5],0.97 mg/dL
same,ABSOLUTE BASOPHIL,[6],0 CELLS/uL
same,ABSOLUTE EOSINOPHIL,[6],17.33 CELLS/uL
same,ABSOLUTE LYMPHOCYTE,[6],10964.5 CELLS/uL
same,ABSOLUTE MONOCYTE,[6],176.17 CELLS/uL
same,ABSOLUTE SEGMENTED NEUTROPHIL,[6],858.67 CELLS/uL
same,BASOPHIL,[6],0%
same,EOSINOPHIL,[6],0.17%
same,ERYTHROCYTE COUNT,[6],5.66 x10E6/uL
same,HEMATOCRIT,[6],35.15%
same,HEMOGLOBIN,[6],14.03 G/DL
same,LYMPHOCYTE,[6],91.17%
same,MEAN CORPUSCULAR HEMOGLOBIN CONCENTRATION,[6],39.97 G/DL
same,MEAN CORPUSCULAR VOLUME,[6],62.08 fL
same,NUCLEATED RED BLOOD CELLS,[6],0 /100WBC
same,ALANINE AMINOTRANSFERASE,[6],54.33 u/L
same,ALBUMIN,[6],4.53 G/DL
same,ALKALINE PHOSPHATASE,[6],352 u/L
same,ASPARTATE AMINOTRANSFERASE,[6],82 u/L
same,CARBON DIOXIDE,[6],33 mmol/L
same,CREATINE PHOSPHOKINASE,[6],171.5 u/L
same,CREATININE,[6],0.19 mg/dL
same,LACTATE DEHYDROGENASE,[6],147.33 u/L
same,TOTAL BILIRUBIN,[6],0.17 mg/dL
same,TOTAL PROTEIN,[6],5.83 G/DL
same,ABSOLUTE BASOPHIL,[7],0 CELLS/uL
same,ABSOLUTE EOSINOPHIL,[7],14.83 CELLS/uL
same,ABSOLUTE LYMPHOCYTE,[7],8599.83 CELLS/uL
same,ABSOLUTE SEGMENTED NEUTROPHIL,[7],668 CELLS/uL
same,BASOPHIL,[7],0%
same,EOSINOPHIL,[7],0.17%
same,ERYTHROCYTE COUNT,[7],5.49 x10E6/uL
same,HEMATOCRIT,[7],33.87%
same,HEMOGLOBIN,[7],13.08 G/DL
same,LYMPHOCYTE,[7],92.33%
same,MEAN CORPUSCULAR HEMOGLOBIN CONCENTRATION,[7],38.63 G/DL
same,MEAN CORPUSCULAR VOLUME,[7],61.8 fL
same,NUCLEATED RED BLOOD CELLS,[7],0 /100WBC
same,PLATELET COUNT,[7],1292.17 x10E3/uL
same,ALANINE AMINOTRANSFERASE,[7],74.17 u/L
same,ALBUMIN,[7],5.1 G/DL
same,ALKALINE PHOSPHATASE,[7],331.67 u/L
same,ASPARTATE AMINOTRANSFERASE,[7],84.67 u/L
same,BLOOD UREA NITROGEN,[7],15.33 mg/dL
same,CARBON DIOXIDE,[7],31.67 mmol/L
same,CREATINE PHOSPHOKINASE,[7],252 u/L
same,CREATININE,[7],0.24 mg/dL
same,LACTATE DEHYDROGENASE,[7],121.33 u/L
same,TOTAL BILIRUBIN,[7],0.1 mg/dL
same,TOTAL PROTEIN,[7],6.25 G/DL
same,ABSOLUTE BASOPHIL,[8],0 CELLS/uL
same,ABSOLUTE EOSINOPHIL,[8],60.33 CELLS/uL
same,ABSOLUTE LYMPHOCYTE,[8],18749.67 CELLS/uL
same,ABSOLUTE MONOCYTE,[8],284.33 CELLS/uL
same,ABSOLUTE SEGMENTED NEUTROPHIL,[8],1839 CELLS/uL
same,BASOPHIL,[8],0%
same,EOSINOPHIL,[8],0.33%
same,ERYTHROCYTE COUNT,[8],5.51 x10E6/uL
same,HEMATOCRIT,[8],33.9%
